From patent US9682940B2, “Indazole derivatives useful as CB-1 inverse agonists” (Janssen Pharmaceutica NV, priority 2015, dated 2017)

How the values were obtained:
[1] = target: Human CB1R (Cannabanoid receptor 1) (Homo sapiens (Human), UniProt P21554); assay: CB-1 in vitro cAMP (HTRF) assay in HEK-293 cells; type: cell-based; conditions: HEK-293 cells stably transfected with human CB1R, 250 nM Forskolin, mean where tested more than once, read-out: CB-1 (HEK_cAMP) EC50
Procedure, shortened: (§1)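 HEK-293 cells stably expressing human CB1 or CB2 plated overnight, then tested in HBSS/5 mM HEPES/0.1% BSA with 0.5 mM IBMX and forskolin (1.5 μM working dilution). Intracellular cAMP quantified by competitive HTRF immunoassay (d2-cAMP, cryptate anti-cAMP) against a cAMP standard curve; compounds as 1/3 serial dilutions from 10 mM DMSO stocks.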

[2] = target: Human CB2R (Cannabanoid receptor 2) (Homo sapiens (Human), UniProt P34972); assay: CB-2 in vitro cAMP (HTRF) assay in HEK-293 cells; type: cell-based; conditions: HEK-293 cells stably transfected with human CB2R, 250 nM Forskolin, mean where tested more than once, read-out: CB-2 (HEK_cAMP) EC50
Procedure, shortened: as §1

Sequence of Human CB2R (Cannabanoid receptor 2) (P34972 whole entry): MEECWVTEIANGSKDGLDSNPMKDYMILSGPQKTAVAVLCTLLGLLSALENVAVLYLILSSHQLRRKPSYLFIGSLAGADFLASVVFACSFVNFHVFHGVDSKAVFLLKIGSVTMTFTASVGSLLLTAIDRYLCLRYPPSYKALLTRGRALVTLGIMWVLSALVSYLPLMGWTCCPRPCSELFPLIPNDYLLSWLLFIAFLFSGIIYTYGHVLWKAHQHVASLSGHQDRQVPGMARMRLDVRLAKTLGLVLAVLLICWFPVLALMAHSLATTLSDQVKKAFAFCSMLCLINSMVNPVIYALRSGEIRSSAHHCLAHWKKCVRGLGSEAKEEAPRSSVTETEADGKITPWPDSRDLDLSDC
Sequence of Human CB1R (Cannabanoid receptor 1) (P21554 whole entry): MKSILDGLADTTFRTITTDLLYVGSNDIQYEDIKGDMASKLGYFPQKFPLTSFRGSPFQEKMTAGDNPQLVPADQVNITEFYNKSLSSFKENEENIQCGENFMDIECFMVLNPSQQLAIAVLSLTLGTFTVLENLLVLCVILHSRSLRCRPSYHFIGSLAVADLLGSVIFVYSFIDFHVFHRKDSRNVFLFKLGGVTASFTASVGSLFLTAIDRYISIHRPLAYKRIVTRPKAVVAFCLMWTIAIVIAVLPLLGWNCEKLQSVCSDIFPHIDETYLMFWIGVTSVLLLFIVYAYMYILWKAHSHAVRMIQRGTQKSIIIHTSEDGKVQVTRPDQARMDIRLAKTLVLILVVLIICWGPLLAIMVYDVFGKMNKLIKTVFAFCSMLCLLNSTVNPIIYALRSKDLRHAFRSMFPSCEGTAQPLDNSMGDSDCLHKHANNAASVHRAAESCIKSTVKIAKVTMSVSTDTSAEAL

SMILES | EC50 [1] | EC50 [2]
NC(=O)c1ccc(S(=O)(=O)N2CCC(c3n[nH]c4ccc(C(c5ccc(Cl)cc5)c5ccc(Cl)cc5)cc34)CC2)cc1 [Compound 28] | 0.134 µM | > 10 µM
COc1ccccc1S(=O)(=O)N1CCC(c2c3cc(C(c4ccc(Cl)cc4)c4ccc(Cl)cc4)ccc3nn2C2CC2)CC1 [Compound 156, 5-(bis(4-chlorophenyl)methyl)-2-cyclopropyl-3-(1-(2-methoxyphenylsulfonyl)piperidin-4-yl)-2H-indazole] | 0.001 µM | > 10 µM
NC(=O)c1cccc(S(=O)(=O)N2CCC(c3n[nH]c4ccc(C(c5ccc(Cl)cc5)c5ccc(Cl)cc5)cc34)CC2)c1 [Compound 65] | 0.025 µM | > 10 µM
O=S(=O)(N1CCN(c2n[nH]c3ccc(C(c4ccc(Cl)cc4)c4ccc(Cl)cc4)cc23)CC1)C(F)(F)F [Compound 26] | 0.005 µM | > 10 µM
NC(=O)c1ccccc1S(=O)(=O)N1CCC(Nc2n[nH]c3ccc(C(c4ccc(Cl)cc4)c4ccc(Cl)cc4)cc23)CC1 [Compound 121] | 0.375 µM | > 10 µM
NC(=O)c1cccc(S(=O)(=O)N2CCC(c3nn(C4CC4)c4ccc(C(c5ccc(Cl)cc5)c5ccc(Cl)cc5)cc34)CC2)c1 [Compound 94] | 0.065 µM | > 10 µM
NC(=O)c1ccc(C(=O)N2CCC(c3nn(C4CC4)c4ccc(C(c5ccc(Cl)cc5)c5ccc(Cl)cc5)cc34)CC2)cc1 [Compound 104] | 0.007 µM | > 10 µM
O=S(=O)(N1CCC(c2nn(C3CC3)c3ccc(C(c4ccc(Cl)cc4)c4ccc(Cl)cc4)cc23)CC1)C(F)(F)F [Compound 275] | 0.024 µM | > 10 µM
O=C(O)c1ccc(CN2CCC(c3n[nH]c4ccc(C(c5ccc(Cl)cc5)c5ccc(Cl)cc5)cc34)CC2)cc1 [Compound 221] | 0.134 µM | > 42 µM
CC(=O)n1nc(N2CCN(S(=O)(=O)C(F)(F)F)CC2)c2cc(C(c3ccc(Cl)cc3)c3ccc(Cl)cc3)ccc21 [Compound 44] | 0.014 µM | > 10 µM
O=C(O)c1csc(CN2CCC(c3c4cc(C(c5ccc(Cl)cc5)c5ccc(Cl)cc5)ccc4nn3C3CC3)CC2)c1 [Compound 239, 5-((4-(5-(bis(4-chlorophenyl)methyl)-2-cyclopropyl-2H-indazol-3-yl)piperidin-1-yl)methyl)thiophene-3-carboxylic acid] | 0.043 µM | > 10 µM
NS(=O)(=O)c1cccc(C(=O)N2CCC(c3nn(CCO)c4ccc(C(c5ccc(Cl)cc5)c5ccc(Cl)cc5)cc34)CC2)c1 [Compound 71] | 0.068 µM | > 10 µM
O=S(=O)(N1CCC(c2nn(-c3ccc(OC(F)(F)F)cc3)c3ccc(C(c4ccc(Cl)cc4)c4ccc(Cl)cc4)cc23)CC1)C(F)(F)F [Compound 49] | 0.018 µM | > 10 µM
O=C(c1c[nH]nn1)N1CCC(c2n[nH]c3ccc(C(c4ccc(Cl)cc4)c4ccc(Cl)cc4)cc23)CC1 [Compound 145] | 0.049 µM | > 10 µM
O=C(O)Cc1ccc(N2CCC(c3n[nH]c4ccc(C(c5ccc(Cl)cc5)c5ccc(Cl)cc5)cc34)CC2)cc1 [Compound 215] | 2.96 µM | > 10 µM
O=S(=O)(c1ccccc1C(F)(F)F)N1CCC(c2n[nH]c3ccc(C(c4ccc(Cl)cc4)c4ccc(Cl)cc4)cc23)CC1 [Compound 33] | 0.049 µM | > 10 µM
O=C(O)c1cccc(CN2CCC(c3nn(C4CC4)c4ccc(C(c5ccc(Cl)cc5)c5ccc(C(F)(F)F)cc5)cc34)CC2)c1 (centres unmarked) [Compound 248] | 0.041 µM | > 10 µM
O=C(O)c1ccc(CN2CCC(c3c4cc(C(c5ccc(Cl)cc5)c5ccc(Cl)cc5)ccc4nn3C3CC3)CC2)o1 [Compound 228, 5-((4-(5-(bis(4-chlorophenyl)methyl)-2-cyclopropyl-2H-indazol-3-yl)piperidin-1-yl)methyl)furan-2-carboxylic acid] | 0.02 µM | > 10 µM
O=C(O)CS(=O)(=O)N1CCC(c2c3cc(C(c4ccc(Cl)cc4)c4ccc(Cl)cc4)ccc3nn2C2CC2)CC1 [Compound 131] | 9.5 µM | > 10 µM
Nc1ccc(C(c2ccc(Cl)cc2)c2ccc3[nH]nc(N4CCN(S(=O)(=O)C(F)(F)F)CC4)c3c2)cc1 (centres unmarked) [Compound 226] | 0.008 µM | 5.5 µM
O=S(=O)(CC(F)(F)F)N1CCC(c2n[nH]c3ccc(C(c4ccc(Cl)cc4)c4ccc(Cl)cc4)cc23)CC1 [Compound 53] | 0.049 µM | > 10 µM
O=C(O)c1ccc(-n2nc(C3CCN(S(=O)(=O)C(F)(F)F)CC3)c3cc(C(c4ccc(Cl)cc4)c4ccc(Cl)cc4)ccc32)cc1 [Compound 204] | 0.019 µM | > 10 µM
O=C(O)COc1ccc(N2CCC(c3c4cc(C(c5ccc(Cl)cc5)c5ccc(Cl)cc5)ccc4nn3C3CC3)CC2)cc1 [Compound 196] | 4.18 µM | > 10 µM

SMILES | EC50 [1] | EC50 [2]
NC(=O)Cc1cccc(N2CCC(c3nn(C4CC4)c4ccc(C(c5ccc(Cl)cc5)c5ccc(Cl)cc5)cc34)CC2)c1 [Compound 190] | 1.08 µM | > 10 µM
Cc1ccc(C(c2ccc(Cl)cc2)c2ccc3c(c2)c(C2CCN(Cc4cccc(C(=O)O)c4)CC2)nn3C2CC2)cc1 (centres unmarked) [Compound 247] | 0.02 µM | > 10 µM
Cc1ccc(C(c2ccc(C)cc2)c2ccc3c(c2)c(C2CCN(Cc4cccc(C(=O)O)c4)CC2)nn3C2CC2)cc1 [Compound 244] | 0.048 µM | > 10 µM
O=S(=O)(N1CCC(c2nn(-c3ccc(Cl)c(Cl)c3)c3ccc(C(c4ccc(Cl)cc4)c4ccc(Cl)cc4)cc23)CC1)C(F)(F)F [Compound 58] | 0.013 µM | > 10 µM
O=S(=O)(N1CCC(c2nn(-c3cccc(C(F)(F)F)c3)c3ccc(C(c4ccc(Cl)cc4)c4ccc(Cl)cc4)cc23)CC1)C(F)(F)F [Compound 57] | 0.474 µM | > 10 µM
O=S(=O)(N1CCC(c2n[nH]c3ccc(C(c4ccc(Cl)cc4)C4CCCCC4)cc23)CC1)C(F)(F)F (centres unmarked) [Compound 280] | 0.565 µM | > 42 µM
CCOC(=O)CS(=O)(=O)N1CCC(c2n[nH]c3ccc(C(c4ccc(Cl)cc4)c4ccc(Cl)cc4)cc23)CC1 [Compound 21] | 0.17 µM | > 10 µM
O=C(O)CCC(=O)N1CCC(c2c3cc(C(c4ccc(Cl)cc4)c4ccc(Cl)cc4)ccc3nn2C2CC2)CC1 [Compound 135] | 0.166 µM | > 10 µM
NC(=O)c1cccc(S(=O)(=O)N2CCC(c3n[nH]c4ccc(C(c5ccc(Cl)cc5)c5ccc(Cl)cc5)cc34)CC2)c1 [Compound 66] | 0.16 µM | > 10 µM
O=C(O)c1ccc(C(=O)N2CCC(c3nn(C4CC4)c4ccc(C(c5ccc(Cl)cc5)c5ccc(Cl)cc5)cc34)CC2)cc1 [Compound 99] | 0.345 µM | > 10 µM
O=S(=O)(N1CCC(c2n[nH]c3ccc(C(c4ccc(Cl)cc4)c4ccc(Cl)cc4)cc23)CC1)C(F)(F)F [Compound 173] | 0.007 µM | 5.78 µM
COC(=O)c1ccc(CN2CCC(c3n[nH]c4ccc(C(c5ccc(Cl)cc5)c5ccc(Cl)cc5)cc34)CC2)cc1 [Compound 258] | 0.428 µM | > 42 µM
O=C(O)c1ccc(S(=O)(=O)N2CCC(c3c4cc(C(c5ccc(Cl)cc5)c5ccc(Cl)cc5)ccc4nn3C3CC3)CC2)cc1F [Compound 166, 4-(4-(5-(bis(4-chlorophenyl)methyl)-2-cyclopropyl-2H-indazol-3-yl)piperidin-1-ylsulfonyl)-2-fluorobenzoic acid] | 0.002 µM | 2.39 µM
O=C(O)c1ccccc1Cn1nc(N2CCN(S(=O)(=O)C(F)(F)F)CC2)c2cc(C(c3ccc(Cl)cc3)c3ccc(Cl)cc3)ccc21 [Compound 45] | 0.941 µM | > 10 µM
NC(=O)COc1ccc(N2CCC(c3n[nH]c4ccc(C(c5ccc(Cl)cc5)c5ccc(Cl)cc5)cc34)CC2)cc1 [Compound 224] | 2.08 µM | > 10 µM
O=C(O)c1ccc(S(=O)(=O)N2CCC(c3nn(CCO)c4ccc(C(c5ccc(Cl)cc5)c5ccc(Cl)cc5)cc34)CC2)cc1 [Compound 80] | 0.374 µM | > 10 µM
NC(=O)CCC(=O)N1CCC(c2nn(C3CC3)c3ccc(C(c4ccc(Cl)cc4)c4ccc(Cl)cc4)cc23)CC1 [Compound 92] | 0.029 µM | > 10 µM
O=C(O)c1cccc(CN2CCC(c3nn(C4CC4)c4ccc(C(c5ccc(F)cc5)c5ccc(Cl)cc5)cc34)CC2)c1 (centres unmarked) [Compound 246] | 0.029 µM | > 10 µM
O=C(O)c1ccccc1S(=O)(=O)N1CCC(c2n[nH]c3ccc(C(c4ccc(Cl)cc4)c4ccc(Cl)cc4)cc23)CC1 [Compound 34] | 6.03 µM | 7.5 µM
NC(=O)c1ccccc1S(=O)(=O)N1CCC(c2c3cc(C(c4ccc(Cl)cc4)c4ccc(Cl)cc4)ccc3nn2C2CC2)CC1 [Compound 139] | 0.202 µM | > 10 µM
O=C(O)c1cc(S(=O)(=O)N2CCC(c3c4cc(C(c5ccc(Cl)cc5)c5ccc(Cl)cc5)ccc4nn3C3CC3)CC2)ccc1Cl [Compound 168, 5-(4-(5-(bis(4-chlorophenyl)methyl)-2-cyclopropyl-2H-indazol-3-yl)piperidin-1-ylsulfonyl)-2-chlorobenzoic acid] | 0.002 µM | 7.04 µM
CNC(=O)c1ccc(S(=O)(=O)N2CCC(c3c4cc(C(c5ccc(Cl)cc5)c5ccc(Cl)cc5)ccc4nn3C3CC3)CC2)cc1Cl [Compound 154, 4-(4-(5-(bis(4-chlorophenyl)methyl)-2-cyclopropyl-2H-indazol-3-yl)piperidin-1-ylsulfonyl)-2-chloro-N-methylbenzamide] | 0.004 µM | > 10 µM
O=C(O)c1cccc(CN2CCC(c3nn(C4CC4)c4ccc(C(c5ccc(F)cc5)c5ccc(F)cc5)cc34)CC2)c1 [Compound 243] | 0.285 µM | > 10 µM
